Measured values from ChEMBL document CHEMBL5537117, “Novel 3-hydroxypyridin-4(1H)-One derivatives as ferroptosis inhibitors with iron-chelating and reactive oxygen species scavenging activities and therapeutic effect in cisplatin-induced cytotoxicity” (Eur J Med Chem, 2024).
One block for each compound: values may come before it. Active and inactive are the calls of the source. The rule behind the calls is not given here.

Legend:
HT-22 [1] = test: Anti-ferroptotic activity in erastin-induced ferroptosis in mouse HT-22 cells assessed as cell viability incubated for 24 hrs by MTT assay; type: functional, cell-based; conditions: HT-22, 24 h
HT-22 [2] = test: Anti-ferroptotic activity against Erastin-induced ferroptosis in mouse HT-22 cells assessed as reduction in LIP level by measuring fluorescence intensity measured after 24 hrs by FeRhoNox-1 based flow cytometry analysis; type: functional, cell-based; conditions: dose 20-100 µM
[3] = Antioxidant activity assessed as trolox equivalent of ORAC radical scavenging activity at 8 uM; type: functional
[4] = Antioxidant activity assessed as ABTS radical scavenging activity incubated in dark for 6 mins by absorbance based microplate reader analysis; type: functional
HT-22 [5] = test: Anti-ferroptotic activity against Erastin-induced ferroptosis in mouse HT-22 cells assessed as inhibition of LPO accumulation at 0.2 uM measured after 24 hrs by BODIPY-C11 based flow cytometry analysis relative to control; type: functional; design: scale not given: the % may be the effect or the level left
[6] = Antioxidant activity assessed as trolox equivalent of ORAC radical scavenging activity at 4 uM; type: functional
HEK-293T [7] = test: Protection against cisplatin-induced cytotoxicity in HEK293T cells assessed as cell viability measured after 24 to 48 hrs by MTT assay; type: functional, cell-based; conditions: Homo sapiens
[8] = MRT (0 to infinity) in rat at 15 mg/kg, IG measured upto 24 hrs by UPLC-MS analysis; type: ADME, organism-based; conditions: in vivo, po
[9] = Volume of distribution at steady state in rat at 5 mg/kg, iv measured upto 24 hrs by UPLC-MS analysis; type: ADME, organism-based; conditions: in vivo, read-out: Vdss
[10] = Acid dissociation constant, pKa1 of the compound in 0.1M KCl at pH 2.0 to 10.5 by UV absorption method; type: physicochemical
[11] = Tmax in rat at 15 mg/kg, IG measured upto 24 hrs by UPLC-MS analysis; type: ADME, organism-based; conditions: in vivo, po
[12] = Half life in rat at 15 mg/kg, IG measured upto 24 hrs by UPLC-MS analysis; type: ADME, organism-based; conditions: in vivo, po
[13] = Acid dissociation constant, pKa3 of the compound in 0.1M KCl at pH 2.0 to 10.5 by UV absorption method; type: physicochemical
HT-22 [14] = test: Cytotoxicity against mouse HT-22 cells assessed as reduction in cell viability at 150 uM by MTT assay relative to control; type: toxicity, cell-based; conditions: ht-22, 150 µM
[15] = AUC (0 to infinity) in rat at 15 mg/kg, IG measured upto 24 hrs by UPLC-MS analysis; type: ADME, organism-based; conditions: in vivo, po
[16] = Clearance in rat at 15 mg/kg, IG measured upto 24 hrs by UPLC-MS analysis; type: ADME, organism-based; conditions: in vivo, po
[17] = Log K3 of the compound in 0.1M KCl at pH 2.0 to 10.5 by UV absorption method; type: physicochemical
[18] = Cmax in rat at 5 mg/kg, iv measured upto 24 hrs by UPLC-MS analysis; type: ADME, organism-based; conditions: in vivo
[19] = AUC (0 to infinity) in rat at 5 mg/kg, iv measured upto 24 hrs by UPLC-MS analysis; type: ADME, organism-based; conditions: in vivo
[20] = Cmax in rat at 15 mg/kg, IG measured upto 24 hrs by UPLC-MS analysis; type: ADME, organism-based; conditions: in vivo, po
[21] = Clearance in rat at 5 mg/kg, iv measured upto 24 hrs by UPLC-MS analysis; type: ADME, organism-based; conditions: in vivo
[22] = MRT (0 to infinity) in rat at 5 mg/kg, iv measured upto 24 hrs by UPLC-MS analysis; type: ADME, organism-based; conditions: in vivo
[23] = AUC (0 to t) in rat at 5 mg/kg, iv measured upto 24 hrs by UPLC-MS analysis; type: ADME, organism-based; conditions: in vivo
HEK-293T [24] = test: Protection against cisplatin-induced cytotoxicity in HEK293T cells assessed as reduction in ROS accumulation at 50 uM measured after 24 hrs by DCFH-DA based flow cytometry analysis; type: functional, cell-based; conditions: Homo sapiens
[25] = Metal chelating activity assessed as Fe3+ chelation
HT-22 [26] = test: Anti-ferroptotic activity against Erastin-induced ferroptosis in mouse HT-22 cells assessed as reduction in LPO accumulation measured after 24 hrs by BODIPY-C11 based flow cytometry analysis; type: functional, cell-based; conditions: dose 20-100 µM
HEK-293T [27] = test: Protection against cisplatin-induced cytotoxicity in HEK293T cells assessed as reduction in LPO accumulation at 50 uM measured after 24 hrs by BODIPY-C11 based flow cytometry analysis; type: functional, cell-based; conditions: Homo sapiens
[28] = Volume of distribution at steady state in rat at 15 mg/kg, IG measured upto 24 hrs by UPLC-MS analysis; type: ADME, organism-based; conditions: in vivo, po
HT-22 [29] = test: Anti-ferroptotic activity against Erastin-induced ferroptosis in mouse HT-22 cells assessed as reduction in ROS accumulation measured after 24 hrs by DCFH-DA based flow cytometry analysis; type: functional, cell-based; conditions: dose 20-100 µM
[30] = AUC (0 to t) in rat at 15 mg/kg, IG measured upto 24 hrs by UPLC-MS analysis; type: ADME, organism-based; conditions: in vivo, po
[31] = Acid dissociation constant, pKa2 of the compound in 0.1M KCl at pH 2.0 to 10.5 by UV absorption method; type: physicochemical
[32] = Log K2 of the compound in 0.1M KCl at pH 2.0 to 10.5 by UV absorption method; type: physicochemical
[33] = Log K1 of the compound in 0.1M KCl at pH 0.9 to 2.1 by UV absorption method; type: physicochemical
[34] = Half life in rat at 5 mg/kg, iv measured upto 24 hrs by UPLC-MS analysis; type: ADME, organism-based; conditions: in vivo
HEK-293T [35] = test: Protection against cisplatin-induced cytotoxicity in HEK293T cells assessed as reduction in attenuation of intracellular Fe2+ at 30 to 80 uM measured after 24 hrs by FeRhoNox-1 based flow cytometry analysis; type: functional, cell-based; conditions: Homo sapiens, dose 30-80 µM
[36] = Oral bioavailability in rat at 15 mg/kg, IG measured upto 24 hrs by UPLC-MS analysis; type: ADME, organism-based; conditions: in vivo
[37] = Tmax in rat at 5 mg/kg, iv measured upto 24 hrs by UPLC-MS analysis; type: ADME, organism-based; conditions: in vivo

IC50 [4]: 6.27 µM
SMILES: CCOC(=O)c1ccc(NC2CCCCC2)c(N)c1
EC50 (HT-22 [1]): 0.191 µM
Activity (HT-22 [2]): inactive
Activity [3]: 9.43
Activity (HT-22 [5]): 100%
Activity [6]: 6.53
EC50 (HEK-293T [7]): 5.69 µM

MRT inf [8]: 8.22 h
Vd [9]: 0.07 L/kg
pKa [10]: 2.32
Tmax [11]: 0.19 h
half-life [12]: 5.83 h
IC50 [4]: 4.35 µM
pKa [13]: 10.1
AUC [15]: 136.25 ng·h/mL
CL [16]: 2.33 mL/min/kg
log(activity) [17]: 36.22
Cmax [18]: 472 ng/mL
AUC [19]: 365.99 ng·h/mL
Cmax [20]: 24.1 ng/mL
CL [21]: 0.33 mL/min/kg
MRT inf [22]: 2.34 h
AUC(0-t) at 24 h [23]: 364 ng·h/mL
Activity [25]: 18.6
Vdss [28]: 1.42 L/kg
AUC(0-t) at 24 h [30]: 120 ng·h/mL
pKa [31]: 6.78
log(activity) [32]: 26.56
log(activity) [33]: 14.67
half-life [34]: 3.74 h
bioavailability [36]: 8.06%
Tmax [37]: 8.4 min
SMILES: Cc1c(O)c(=O)ccn1NC(=O)/C=C/c1cccc(F)c1
EC50 (HT-22 [1]): 14.9 µM
Activity (HT-22 [2]): Dose-Dependent Effect
Activity [3]: 36
Activity (HT-22 [14]): > 80%
Activity (HEK-293T [24]): Active
Activity (HT-22 [26]): Dose-Dependent Effect
Activity [6]: 23.8
Activity (HEK-293T [27]): Active
Activity (HT-22 [29]): Dose-Dependent Effect
EC50 (HEK-293T [7]): 24.9 µM
Activity (HEK-293T [35]): Active
